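Five compound concentrations were applied to cells in 96-well plates for 48 hours; endpoints were derived by simple linear interpolation of the resulting dose-response curve. Abbreviation: GI50, concentration required for 50% inhibition of growth.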 Calls of active or inactive are those of the source. Cut-off read from the data, not from the text of the source: active = GI50 up to about 1.1 µM and inactive = higher.
What was measured:
Test in all cases: growth of human tumour cells (NCI), 48 h
[1] = test system: RPMI-8226
[2] = test system: SK-OV-3
[3] = test system: PC-3
[4] = test system: DU-145
[5] = test system: LOX IMVI
[6] = test system: SNB-75
[7] = test system: Hs-578T
[8] = test system: Malme-3M
[9] = test system: SR
[10] = test system: NCI-H226
[11] = test system: K562
[12] = test system: BT-549
[13] = test system: NCI/ADR-RES
[14] = test system: HCT-15
[15] = test system: 786-0
[16] = test system: OVCAR-3
[17] = test system: KM12
[18] = test system: A549
[19] = test system: UACC-62
[20] = test system: SN12C
[21] = test system: HOP-62
[22] = test system: NCI-H23
[23] = test system: SK-MEL-2
[24] = test system: T47D
[25] = test system: HOP-92
[26] = test system: UO-31
[27] = test system: M14
[28] = test system: HT-29
[29] = test system: MDA-N
[30] = test system: SNB-19
[31] = test system: UACC-257
[32] = test system: HCT-116
[33] = test system: RXF 393
[34] = test system: HCC 2998
[35] = test system: A498
[36] = test system: MDA-MB-435
[37] = test system: SF-268
[38] = test system: U-251
[39] = test system: OVCAR-5
[40] = test system: EKVX
[41] = test system: MCF7
[42] = test system: MDA-MB-231
[43] = test system: CAKI-1
[44] = test system: NCI-H460
[45] = test system: SK-MEL-5
[46] = test system: SF-295
[47] = test system: OVCAR-4
[48] = test system: SF-539
[49] = test system: SW-620
[50] = test system: CCRF-CEM
[51] = test system: HL-60
[52] = test system: IGROV-1
[53] = test system: SK-MEL-28
[54] = test system: MOLT-4
[55] = test system: COLO 205
[56] = test system: OVCAR-8
[57] = test system: TK-10
[58] = test system: NCI-H522
[59] = test system: ACHN
[60] = test system: DMS-273
[61] = test system: SNB-78
[62] = test system: M19-MEL
[63] = test system: DMS-114
[64] = test system: LXFL 529
[65] = test system: DLD-1
[66] = test system: KM-20L2

Measured: GI50

CCc1nc(N)nc(N)c1-c1ccc2nn(-c3ccccc3)[n+]([O-])c2c1
0.697 µM: [14]
inactive: [1] 8.24 µM | [2] 39.1 µM | [3] 1.23 µM | [4] 6.14 µM | [6] 21.3 µM | [7] 17.9 µM | [8] 10.7 µM | [9] 1.35 µM | [10] 14.5 µM | [12] 11.9 µM | [13] 3.13 µM | [15] 1.16 µM | [16] 7.62 µM | [17] 5.45 µM | [20] 9.38 µM | [21] 5.82 µM | [22] 1.87 µM | [23] 14.3 µM | [24] 13.1 µM | [25] 8.91 µM | [26] 7.13 µM | [27] 1.33 µM | [28] 1.26 µM | [30] 16.3 µM | [31] 10.6 µM | [33] 10.3 µM | [34] 4.59 µM | [35] 8.43 µM | [36] 1.27 µM | [37] 5.12 µM | [38] 2.58 µM | [39] 14 µM | [40] 7.96 µM | [41] 4.17 µM | [42] 11.7 µM | [43] 4.47 µM | [45] 2.61 µM | [46] 2.4 µM | [47] 11.9 µM | [48] 3.7 µM | [50] 1.6 µM | [52] 1.67 µM | [53] 11.8 µM | [54] 2.84 µM | [55] 8.22 µM | [56] 2.42 µM | [57] 15 µM | [58] 2.83 µM | [59] 1.76 µM
active: [5] 1.01 µM | [11] 0.203 µM | [18] 0.378 µM | [19] 1.02 µM | [29] 0.895 µM | [32] 0.396 µM | [44] 0.361 µM | [49] 0.869 µM | [51] 0.902 µM

FC(F)(F)c1cccc(C2SCc3nc4ccccc4n32)c1 (stereo unspecified)
inactive: [60] 41.9 µM | [1] 12.9 µM | [61] > 100 µM | [2] 26.8 µM | [6] 29.8 µM | [8] > 100 µM | [9] 44 µM | [10] > 100 µM | [11] 8.61 µM | [62] > 100 µM | [15] 61.5 µM | [16] 56 µM | [17] 68.4 µM | [18] 56.1 µM | [63] 18.5 µM | [19] > 100 µM | [64] 27.8 µM | [20] > 100 µM | [22] 9.79 µM | [23] > 100 µM | [25] 2.41 µM | [26] > 100 µM | [28] > 100 µM | [30] 51.3 µM | [31] 4.54 µM | [32] 38.9 µM | [65] 54.2 µM | [33] 33.1 µM | [34] > 100 µM | [37] 90.6 µM | [38] 62.7 µM | [39] 6.32 µM | [40] 73.3 µM | [43] 55.2 µM | [45] 11 µM | [46] 33.9 µM | [48] 26.6 µM | [49] > 100 µM | [50] 32.8 µM | [51] 5.75 µM | [52] 33.7 µM | [53] 65.9 µM | [54] 41.4 µM | [55] > 100 µM | [56] 59.3 µM | [57] 72.3 µM | [58] 17.6 µM | [59] 64 µM

c1ccc2c(c1)CN1CCCC1CN2 (stereo unspecified)
inactive: [1] > 100 µM | [2] > 100 µM | [3] > 100 µM | [4] > 100 µM | [5] > 100 µM | [6] > 100 µM | [7] > 100 µM | [8] > 100 µM | [9] > 100 µM | [10] > 100 µM | [11] > 100 µM | [12] > 100 µM | [13] > 100 µM | [15] > 100 µM | [16] > 100 µM | [17] > 100 µM | [18] > 100 µM | [19] > 100 µM | [20] > 100 µM | [21] > 100 µM | [22] > 100 µM | [23] > 100 µM | [24] > 100 µM | [25] > 100 µM | [26] > 100 µM | [27] > 100 µM | [28] > 100 µM | [29] > 100 µM | [30] > 100 µM | [31] > 100 µM | [32] > 100 µM | [33] > 100 µM | [34] > 100 µM | [35] > 100 µM | [36] > 100 µM | [37] > 100 µM | [38] > 100 µM | [39] > 100 µM | [40] > 100 µM | [41] > 100 µM | [42] > 100 µM | [43] > 100 µM | [44] > 100 µM | [45] > 100 µM | [46] > 100 µM | [47] > 100 µM | [48] > 100 µM | [49] > 100 µM | [50] > 100 µM | [51] > 100 µM | [52] > 100 µM | [53] > 100 µM | [54] > 100 µM | [55] > 100 µM | [56] > 100 µM | [57] > 100 µM | [58] > 100 µM | [59] > 100 µM
> 100 µM: [14]

CCOC(=O)c1cnc2cc3cccccc3n2c1=O
inactive: [60] 31.8 µM | [1] > 100 µM | [61] > 100 µM | [66] > 100 µM | [5] > 100 µM | [6] 97.5 µM | [9] 45 µM | [10] > 100 µM | [11] > 100 µM | [15] > 100 µM | [16] > 100 µM | [17] 60.7 µM | [18] > 100 µM | [63] 35 µM | [19] > 100 µM | [64] > 100 µM | [20] > 100 µM | [21] > 100 µM | [22] > 100 µM | [23] > 100 µM | [26] > 100 µM | [27] > 100 µM | [28] > 100 µM | [30] > 100 µM | [31] > 100 µM | [32] 39.3 µM | [65] > 100 µM | [33] > 100 µM | [34] > 100 µM | [35] > 100 µM | [37] > 100 µM | [38] > 100 µM | [39] > 100 µM | [40] > 100 µM | [43] > 100 µM | [44] > 100 µM | [46] > 100 µM | [47] > 100 µM | [48] > 100 µM | [49] > 100 µM | [50] > 100 µM | [51] > 100 µM | [52] > 100 µM | [53] > 100 µM | [54] > 100 µM | [55] > 100 µM | [56] > 100 µM | [57] > 100 µM | [59] > 100 µM
> 100 µM: [14]

Source: ChEMBL document CHEMBL1201862, “PubChem BioAssay data set” (2004)
